Reference: US6221386A (priority 1996, dated 2001)
Read-outs that look alike come from different tables or passages of the source.

Assays:
Type in all cases: in vivo, BALB/c mice
Brucella melitensis 16M [1] = conditions: intramuscular; 1 mg antibiotic/mouse on days 7, 8 and 9; sacrificed day 12
Brucella melitensis 16M [2] = conditions: 1 mg/mouse intramuscularly
Brucella melitensis 16M [3] = conditions: 1 mg ciprofloxacin/mouse intramuscularly, 5 × 10^4 CFU

SMILES | Spleen counts after antibiotic was given (Brucella melitensis 16M [1]) | B. melitensis 16M counts in spleens 7 days after infection (Brucella melitensis 16M [2]; single dose 1 day after infection (title; head prints before)) | B. melitensis 16M counts in spleens 7 days after infection (Brucella melitensis 16M [2]; single dose 2 days after infection (title; head prints before)) | B. melitensis 16M counts in spleens 7 days after infection (Brucella melitensis 16M [2]; single dose 3 days after infection (title; head prints before)) | B. melitensis 16M counts in spleens 7 days after infection (Brucella melitensis 16M [2]; single dose 7 days after infection (title; head prints before)) | B. melitensis 16M counts in spleens 7 days after infection (Brucella melitensis 16M [3]; single dose 1 day before infection) | B. melitensis 16M counts in spleens 7 days after infection (Brucella melitensis 16M [3]; single dose 2 days before infection) | B. melitensis 16M counts in spleens 7 days after infection (Brucella melitensis 16M [3]; single dose 3 days before infection) | B. melitensis 16M counts in spleens 7 days after infection (Brucella melitensis 16M [3]; single dose 7 days before infection)
O=C(O)c1cn(C2CC2)c2cc(N3CCNCC3)c(F)cc2c1=O [Ciprofloxacin, ciprofloxacin] | 1.3 ± 0.4 × 10^4 | 1.6 ± 0.3 × 10^4 | 13.0 ± 0.6 × 10^4 | 3.5 ± 0.9 × 10^4 | 3.9 ± 1.6 × 10^4 | 1.5 ± 0.3 × 10^4 | 2.8 ± 1.0 × 10^4 | 1.4 ± 0.2 × 10^4 | 1.9 ± 0.4 × 10^4
CN(C)C1C(=O)C(C(N)=O)=C(O)C2(O)C(=O)C3=C(O)c4c(O)cccc4C(C)(O)C3CC12 (stereo not shown) [Tetracycline, tetracycline] | 4.8 ± 0.8 × 10^3 |  |  |  |  |  |  |  | 
